What was measured:
[1] = test system: myeloid leukemia cell line SET2; experiment: CellTitre Glo in vitro cytotoxicity, SET2; format: cell-based
[2] = test system: human epithelial CACO-2 cells; experiment: Cell permeability in CACO-2 cells; format: in vitro ADME
[3] = test system: panel of cancer cell lines and primary cell lines; experiment: In vitro cytotoxicity of drug/prodrug pairs against a panel of cell lines; format: cell-based
[4] = mouse, in vivo
Raji = experiment: Cell viability, Raji; format: cell-based, human
HEK293T (kidney) = experiment: CellTitre Glo in vitro cytotoxicity, HEK293T; format: cell-based, human
primary T-cells = experiment: CellTitre Glo in vitro cytotoxicity, primary T cells; format: cell-based, human
[5] = test system: SKOV-3 human ovarian cancer cell line; experiment: Cell viability, Skov-3; format: cell-based
recombinant CPG2 = target: T1, recombinant CPG2 (Pseudomonas sp., UniProt P06621, N222Q/N264Q/N272Q); experiment: Glutamate release assay (Amplex Red) with recombinant CPG2; format: biochemical; conditions: high concentrations (~10 μM), 37° C.
T1 construct: 6xHis (pET151 Directional TOPO leader) (N); made in house; host or cells: E. coli BL21 star
Protocol: FIG. 4 provides exemplary data showing activation of P-AMS (see FIG. 2) by recombinant CPG2 expressed and purified from E. coli. (A) Human Jurkat T cells were incubated with or without P-AMS in the presence of increasing concentration of purified CPG2. Cell viability was measured at 48 hours by CellTitre-Glo luminescence. (B) Recombinant CPG2 was exposed to various concentrations of glutamated AMS prodrug. Following incubation at 37° C. (0.5, 1, 2, and 4 hr.), the reaction was combined with Amplex® Red (converts free glutamate to a fluorescent species) and fluorescent emission was analyzed using a fluorescence multiwell plate scanner.
The CPG2-pET151 vector was transformed into BL21 star E. coli cells and induced with IPTG. Bacteria were homogenized in a French Press and purified by affinity chromatography over Ni++ beads using standard protocols. Imidazole was exchanged via PBS dialysis and protein was purified via desalting spin columns. The expressed and purified CPG2 was assayed to confirm that the active enzyme was a potent converter of glutamated prodrugs. […] Pro-AMS was activated by recombinant CPG2 in vitro. Human Jurkat T cells were incubated with or without P-AMS in the presence of increasing concentration of purified CPG2. Cell viability of the Jurkat cells was measured at 48 hours by CellTitre-Glo® luminescence. […]

Nalm6 = experiment: Cell viability, Nalm6; format: cell-based
[6] = test system: HEK293T cells expressing CPG2; experiment: HEK293T cells expressing CPG2 variants exposed to P-AMS; format: cell-based, human
Protocol: (§1) The in vitro cytotoxicity of AMS (structure 1c) and its prodrug variant (structure 1a) was tested against a variety of cell lines using a CellTitre Glo® assay (Promega, Madison, WI). […] Moreover, co-treatment with the prodrug and supernatant from CPG2-transfected HEK293T cells (see Example 3) led to cytotoxicity approaching that of the free drug (50 nM), consistent with CPG2-mediated cleavage of the prodrug to release the active parent drug. […] In contrast, AMS prodrug 1a was not activated by HEK293T cells expressing CPG intracellularly, which likely attributed to poor cell-penetrance of the prodrug due to the free bis-anionic gluatamate moiety.
Expression of CPG2 without a signal peptide (CPG2nosigp) was employed as a control. HEK293t cells stably transfected with CPG2 variants were exposed to P-AMS ([…]) for 48 hours and analyzed by bright field microscopy (FIG. 9A). Cells were exposed to varying concentrations of P-AMS and cell viability was analyzed at 48 hr post treatment (FIG. 9B).

Jurkat (T cell) = experiment: CellTitre Glo in vitro cytotoxicity, Jurkat; format: cell-based, human
[7] = target: T2, endogenous glutamate carboxypeptidase expressed in human prostate cells (Homo sapiens, UniProt Q04609); experiment: Cell Titer-Glo viability of LNCap cells with AMS-glut prodrug (specificity for CPG2); format: cell-based
T2 construct: the endogenous glutamate carboxypeptidase expressed in human prostate cells; endogenous in cells; host or cells: LNCap cells
From the text: This prodrug/drug combination was chosen for further development of the SEAKER systems.

SET2 cells = experiment: SET2 viability with prodrug plus recombinant enzyme or enzyme-containing supernatant; format: cell-based; conditions: supernatant from CPG2-secreting HEK293t cells; control media did not
Protocol: Recombinant CPG2 protein was initially synthesized, purified (FIGS. 18A and 18B), and incubated with increasing concentrations of prodrug in a glutamate release assay (FIG. 17C). Mass spectrometry was used to determine that the glutamate moiety was released from all of the glutamate prodrugs. The in vitro cytotoxicity of the prodrugs (FIG. 17B) were tested against the myeloid leukemia cell line SET2 using a CellTitre Glo® assay (Promega, Madison, WI).
SET2 cells were exposed to increasing concentrations of AMS (square) or glut-AMS with media alone (− control, triangle) or supernatant from CPG2-secreting HEK293t cells (circle). Cell viability was measured by CellTitre-Glo® luminescence assay.
Thus, antigen-dependent expansion of SEAKER T cells results in increased output of enzyme into the extracellular milieu.
To determine to respective enzyme output of the Beta-lactamase constructs relative to the previous CPG2 constructs, a quantitative sandwich ELISA was used to determine the concentration (ng/mL) of purified recombinant CPG2, and a quantitative nitrocefin assay was used to determine the concentration (ng/mL) of purified recombinant Beta-lactamase (FIG. 25A). Cell viability was measured by CellTitre-Glo® luminescence in the presence of prodrug (glut-AMS or ceph-AMS) and varying concentrations of purified recombinant CPG2 or Beta-lactamase (FIG. 25B).

Jurkat T cells = experiment: Jurkat viability with prodrug plus supernatant from CPG2-secreting HEK293T cells; format: cell-based, human; conditions: increasing prodrug, 48 hours, supernatant from CPG2-secreting HEK293T cells
Protocol: as §1
Jurkat T cells were exposed to increasing concentrations of AMS (circle) or Pro-AMS with media alone (triangle) or supernatant from CPG2-secreting HEK293T cells (square). Cell viability was measured at 48 hours by CellTitre-Glo® luminescence assay.
Jurkat T cells were exposed to increasing concentrations of ZD2767P with media alone (triangle) or supernatant from CPG2-secreting HEK293T cells (square). Cell viability was measured at 48 hours by CellTitre-Glo® luminescence assay.

Compound: NS(=O)(=O)OC[C@H]1O[C@@H](n2cnc3c(NC(=O)N[C@@H](CCC(=O)O)C(=O)O)ncnc32)[C@H](O)[C@@H]1O [P-AMS, ((9-((2R,3R,4S,5R)-3,4-dihydroxy-5-((sulfamoyloxy)methyl)tetrahydrofuran-2-yl)-9H-purin-6-yl)carbamoyl)-L-glutamic acid]
- IC50 ([1]; Homo sapiens, SET-2, read-out: IC50 (cell selectivity data)): > 3000 nM
- Selective Index ([1]; Set2, prodrug vs AMS): >87.2
- cell permeability [2]: no cell permeability
- selective indices ([3]; all cell types tested): > 100
- IC50 ([3]; prodrug alone, cell lines tested): > 1000 nM
- SI selectivity index ([3]; prodrug vs free drug, up to): > 56
- toxicity [4]: non-toxic
- IC50 (Raji; Homo sapiens, read-out: IC50 (cell selectivity data)): > 3000 nM
- Selective Index (Raji; prodrug vs AMS): >170.5
- Selective Index (HEK293T (kidney); HEK293t, prodrug vs AMS): >7.5
- IC50 (HEK293T (kidney); Homo sapiens, HEK-293T, read-out: IC50 (cell selectivity data)): > 5000 nM
- IC50 (primary T-cells; Homo sapiens, T-cell, read-out: IC50 (cell selectivity data)): > 3000 nM
- Selective Index (primary T-cells; Human T cell, prodrug vs AMS): >13.2
- IC50 ([5]; Homo sapiens, SK-OV-3, read-out: IC50 (cell selectivity data)): > 5000 nM
- Selective Index ([5]; Skov-3, prodrug vs AMS): >14.3
- time in which the majority of the prodrug is converted (recombinant CPG2): ≤ 1 h
- IC50 (Nalm6; Homo sapiens, NALM-6, read-out: IC50 (cell selectivity data)): > 3000 nM
- Selective Index (Nalm6; Nalm6, prodrug vs AMS): >81.3
- activation by cells expressing CPG intracellularly ([6]; HEK293T cells expressing CPG intracellularly): not activated
- cell death of HEK293T cells stably expressing secreted or transmembrane CPG2 ([6]; P-AMS, 48 hr, CPG2nosigp control did not): significant cell death
- IC50 (Jurkat (T cell); Homo sapiens, Jurkat, read-out: IC50 (cell selectivity data)): > 1250 nM
- Selective Index (Jurkat (T cell); Jurkat (T cell), prodrug vs AMS): >162.3
- stability to endogenous glutamate carboxypeptidase [7]: remained stable
- SET2 cell viability with prodrug and CPG2 supernatant (SET2 cells): significant decrease in cell viability
- cell viability with prodrug and CPG2 supernatant (Jurkat T cells): significant decrease in cell viability

Reference: patent US12178830B2, “Compositions and methods for adoptive cell therapy for cancer” (MEMORIAL SLOAN KETTERING CANCER CENTER, priority 2017, dated 2024)
